Reference: paper PMC7345905, “Microbial Metabolite Urolithin B Inhibits Recombinant Human Monoamine Oxidase A Enzyme” (Metabolites, 2020)
Where “and” joins values, the source holds several entries; their conditions need not be identical. Identical values can stand only once.

Columns and labels:
[1] = target: T1, human recombinant MAO-A (Homo sapiens, UniProt P21397); assay: MAO-Glo MAO-A inhibition assay; type: biochemical; details: 100 µM
T1 construct: purchased Sigma-Aldrich
T1 sequence (P21397 1-527): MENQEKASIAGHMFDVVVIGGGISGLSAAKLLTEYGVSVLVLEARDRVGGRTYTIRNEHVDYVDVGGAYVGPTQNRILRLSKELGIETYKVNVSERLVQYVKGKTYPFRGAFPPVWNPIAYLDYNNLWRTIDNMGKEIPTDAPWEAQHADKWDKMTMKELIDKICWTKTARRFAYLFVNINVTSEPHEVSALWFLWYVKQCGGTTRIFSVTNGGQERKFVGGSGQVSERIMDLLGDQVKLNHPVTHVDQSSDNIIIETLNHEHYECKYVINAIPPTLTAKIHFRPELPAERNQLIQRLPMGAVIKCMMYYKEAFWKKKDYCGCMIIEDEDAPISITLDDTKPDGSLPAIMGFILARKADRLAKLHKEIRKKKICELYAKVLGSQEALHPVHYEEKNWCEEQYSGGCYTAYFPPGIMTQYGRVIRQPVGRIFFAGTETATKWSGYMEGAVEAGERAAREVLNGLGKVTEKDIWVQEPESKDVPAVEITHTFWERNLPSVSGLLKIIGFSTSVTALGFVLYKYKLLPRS
Method: (§1) MAO inhibition assays were performed using a MAO-Glo™ Assay kit (Promega) according to the manufacturer’s instructions. Briefly, 1 µg of human recombinant MAO-A and MAO-B enzyme isoforms were incubated with 160 and 16 µM of MAO substrates, respectively. […] The enzyme reaction was quenched by the addition of a luciferin detection reagent. […] An equal volume of dimethyl sulfoxide (0.1%) was added to the enzyme assay as a control. After 1 h of incubation, the luminescence was measured with a multimode microplate reader (Synergy HT, BioTek, Winooski, VT, USA) to determine the MAO enzyme activities. Initially, the inhibition potential of all the test compounds was evaluated at a concentration of 100 μM. The control reaction (with no inhibitor) with vehicle (DMSO 0.1%) was set at 100% activity. To determine IC50 of the test compounds, the dose dependent enzyme assays were performed. We used range of 0.1 to 50 μM concentrations for MAO-A and 0.1 to 200 μM concentrations of test compounds for the MAO-B enzyme activities. The type of enzyme inhibition was determined using variable concentrations of MAO-A substrate (10–360 µM) and MAO-B substrate (2–64 µM) for the respective enzyme assay. […] A Lineweaver–Burk double reciprocal plot was generated, and the mode of inhibition was determined by visual examination of the plot. The slope of the reciprocal plots was plotted against the inhibitor concentrations and determined the x-axis intercept that represented the inhibitor constant, Ki value.

[2] = target: T2, human recombinant MAO-B (Homo sapiens, UniProt P27338); assay: MAO-Glo MAO-B inhibition assay; type: biochemical
T2 construct: purchased Sigma-Aldrich
T2 sequence (P27338 1-520): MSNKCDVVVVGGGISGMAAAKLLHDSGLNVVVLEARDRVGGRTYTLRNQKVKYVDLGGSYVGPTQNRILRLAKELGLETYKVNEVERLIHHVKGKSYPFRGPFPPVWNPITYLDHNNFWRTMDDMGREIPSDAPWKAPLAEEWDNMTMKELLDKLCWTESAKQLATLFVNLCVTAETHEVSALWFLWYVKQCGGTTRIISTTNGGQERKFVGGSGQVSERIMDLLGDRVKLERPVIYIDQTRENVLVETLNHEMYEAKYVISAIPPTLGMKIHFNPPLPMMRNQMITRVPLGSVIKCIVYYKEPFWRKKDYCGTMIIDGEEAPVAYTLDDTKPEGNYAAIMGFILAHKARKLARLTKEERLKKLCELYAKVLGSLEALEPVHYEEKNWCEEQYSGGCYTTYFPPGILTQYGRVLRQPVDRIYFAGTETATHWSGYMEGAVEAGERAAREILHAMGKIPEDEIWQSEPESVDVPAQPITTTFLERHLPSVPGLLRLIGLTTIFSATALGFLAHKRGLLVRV
Method: as §1

inhibition of MAO-A enzyme activity ([1]; compared to vehicle): failed to inhibit
inhibition at 100 µM ([2]; 100 μM): 20 to 30%
remaining activity at 100 µM ([2]; 100 µM (Figure 1C), N=1-3, read-out: MAO-B enzyme assay, Percent of control): 88.7%
Compound: O=c1oc2c(O)c(O)cc3c(=O)oc4c(O)c(O)cc1c4c23 [EA, ellagic acid]
MAO-A enzyme assay, Percent of control ([1]; 100 µM (Figure 1A), N=1-3): 80.5551% of control and 100.559% of control and 100.148% of control
MAO-B enzyme assay, Percent of control ([2]; 100 µM (Figure 1C), N=1-3, 100 µM): 89.6601% of control and 87.5901% of control
